In ChEMBL document CHEMBL3046437, “Synthesis, characterization and biological evaluation of some pyridine and quinoline fused chromenone derivatives” (2012):
≈ marks a conversion by molar mass, not a printed value. Calls of active or inactive are those of the source. The calls are words filed in the database; no cut-off is given here.

Assays:
Type in all cases: functional
[1] = test system: Pseudomonas fluorescens; experiment: Antibacterial activity against Pseudomonas fluorescens S 97 at 100 ug/ml after 24 hr by agar diffusion method; details: for zone of inhibition at 100 µg/mL: S 97, 24 h, read-out: DIZ
[2] = test system: Pseudomonas; experiment: Antibacterial activity against Pseudomonas phaseolicola GSPB 2828 after 24 to 48 hr by two-fold serial dilution method
[3] = test system: Aspergillus niger; experiment: Antifungal activity against Aspergillus niger MTCC 282 at 100 ug/ml after 48 hr by agar diffusion method; details: for zone of inhibition at 100 µg/mL: MTCC 282, 48 h, read-out: DIZ
[4] = test system: Pseudomonas; experiment: Antibacterial activity against Pseudomonas phaseolicola GSPB 2828 at 100 ug/ml after 24 hr by agar diffusion method; details: GSPB 2828, 24 h, read-out: DIZ
[5] = test system: Fusarium oxysporum; experiment: Antifungal activity against Fusarium oxysporum ATCC 16417 at 100 ug/ml after 48 hr by agar diffusion method; details: for zone of inhibition at 100 µg/mL: ATCC 16417, 48 h, read-out: DIZ
[6] = test system: Streptococcus pyogenes; experiment: Antibacterial activity against Streptococcus pyogenes ATCC 19615 after 24 to 48 hr by two-fold serial dilution method
[7] = test system: Streptococcus pyogenes; experiment: Antibacterial activity against Streptococcus pyogenes ATCC 19615 at 100 ug/ml after 24 hr by agar diffusion method; details: ATCC 19615, 24 h, read-out: DIZ
[8] = test system: Staphylococcus aureus; experiment: Antibacterial activity against Staphylococcus aureus ATCC 25923 after 24 to 48 hr by two-fold serial dilution method
[9] = test system: Pseudomonas fluorescens; experiment: Antibacterial activity against Pseudomonas fluorescens S 97 after 24 to 48 hr by two-fold serial dilution method
[10] = test system: Aspergillus niger; experiment: Antifungal activity against Aspergillus niger MTCC 282 after 24 to 48 hr by two-fold serial dilution method
[11] = test system: Staphylococcus aureus; experiment: Antibacterial activity against Staphylococcus aureus ATCC 25923 at 100 ug/ml after 24 hr by agar diffusion method; details: ATCC 25923, 24 h, read-out: DIZ
[12] = test system: Fusarium oxysporum; experiment: Antifungal activity against Fusarium oxysporum ATCC 16417 after 24 to 48 hr by two-fold serial dilution method

| MIC [2] [µg/mL] | MIC [6] [µg/mL] | MIC [8] [µg/mL] | MIC [9] [µg/mL] | MIC [10] [µg/mL] | MIC [12] [µg/mL] | Structure (SMILES) | zone of inhibition at 100 µg/mL [1] [mm] | zone of inhibition at 100 µg/mL [3] [mm] | zone of inhibition at 100 µg/mL [4] [mm] | zone of inhibition at 100 µg/mL [5] [mm] | zone of inhibition at 100 µg/mL [7] [mm] | zone of inhibition at 100 µg/mL [11] [mm] | diameter of the inhibition zone (DIZ) [3] | diameter of the inhibition zone (DIZ) [1] | diameter of the inhibition zone (DIZ) [5] |
| --- | --- | --- | --- | --- | --- | --- | --- | --- | --- | --- | --- | --- | --- | --- | --- |
| 50 (≈ 211 µM) | 25 (≈ 105 µM) | 50 (≈ 211 µM) | 50 (≈ 211 µM) | > 100 | 50 (≈ 211 µM) | O=c1oc2ccccc2c2nc3c(cc12)CCC3 | 19 | 10 | 14 | 18 | 20 | 19 |  |  |  |
| 50 (≈ 150 µM) | 12.5 (≈ 37.5 µM) | 12.5 (≈ 37.5 µM) | 50 (≈ 150 µM) | 100 (≈ 300 µM) | 12.5 (≈ 37.5 µM) | O=c1oc2ccc(Cl)cc2c2nc3c(cc12)CCc1ccccc1-3 | 16 | 8 | 15 | 23 | 23 | 26 |  |  |  |
| 25 (≈ 94.2 µM) | 25 (≈ 94.2 µM) | 12.5 (≈ 47.1 µM) | 25 (≈ 94.2 µM) | 50 (≈ 188 µM) | 100 (≈ 377 µM) | Cc1cccc2c1oc(=O)c1cc3c(nc12)CCCC3 | 20 | 25 | 19 | 10 | 18 | 27 |  |  |  |
| 50 (≈ 199 µM) | 50 (≈ 199 µM) | 50 (≈ 199 µM) | 25 (≈ 99.5 µM) | 50 (≈ 199 µM) | 12.5 (≈ 49.7 µM) | Cc1ccc2oc(=O)c3cc4c(nc3c2c1)CCC4 | 17 | 24 | 15 | 30 | 19 | 18 |  |  |  |
| 25 (≈ 99.5 µM) | 50 (≈ 199 µM) | 25 (≈ 99.5 µM) | 25 (≈ 99.5 µM) | 50 (≈ 199 µM) | 12.5 (≈ 49.7 µM) | O=c1oc2ccccc2c2nc3c(cc12)CCCC3 | 17 | 22 | 20 | 26 | 22 | 22 |  |  |  |
| 100 (≈ 368 µM) | 12.5 (≈ 46 µM) | 12.5 (≈ 46 µM) | 12.5 (≈ 46 µM) | 25 (≈ 92 µM) | > 100 | O=c1oc2ccc(Cl)cc2c2nc3c(cc12)CCC3 | 20 | 32 | 14 | 8 | 24 | 26 |  |  |  |
| 50 (≈ 188 µM) | 12.5 (≈ 47.1 µM) | 50 (≈ 188 µM) | 50 (≈ 188 µM) |  | 50 (≈ 188 µM) | Cc1ccc2oc(=O)c3cc4c(nc3c2c1)CCCC4 | 16 |  | 14 | 17 | 25 | 21 | inactive |  |  |
| 50 (≈ 175 µM) | 12.5 (≈ 43.7 µM) | 12.5 (≈ 43.7 µM) |  | 50 (≈ 175 µM) | 50 (≈ 175 µM) | O=c1oc2ccc(Cl)cc2c2nc3c(cc12)CCCC3 |  | 20 | 18 | 16 | 23 | 24 |  | inactive |  |
| 25 (≈ 99.5 µM) | 12.5 (≈ 49.7 µM) | 12.5 (≈ 49.7 µM) | 50 (≈ 199 µM) | 12.5 (≈ 49.7 µM) |  | Cc1cccc2c1oc(=O)c1cc3c(nc12)CCC3 | 14 | 28 | 19 |  | 22 | 25 |  |  | inactive |
| 25 (≈ 79.8 µM) | 25 (≈ 79.8 µM) | 50 (≈ 160 µM) | 25 (≈ 79.8 µM) | 50 (≈ 160 µM) | 50 (≈ 160 µM) | Cc1ccc2oc(=O)c3cc4c(nc3c2c1)-c1ccccc1CC4 | 18 | 18 | 18 | 17 | 17 | 23 |  |  |  |
| 6.25 (≈ 15.8 µM) | 6.25 (≈ 15.8 µM) | 6.25 (≈ 15.8 µM) | 6.25 (≈ 15.8 µM) |  |  | CC(=O)OCC1=C(C(=O)O)N2C(=O)[C@@H](NC(=O)Cc3cccs3)[C@H]2SC1 [CEPHALOTHIN] | 37 |  | 38 |  | 37 | 36 |  |  |  |
| 50 (≈ 167 µM) | 12.5 (≈ 41.8 µM) | 25 (≈ 83.5 µM) | 25 (≈ 83.5 µM) | 12.5 (≈ 41.8 µM) | 100 (≈ 334 µM) | O=c1oc2ccccc2c2nc3c(cc12)CCc1ccccc1-3 | 19 | 25 | 16 | 10 | 19 | 20 |  |  |  |
| 50 (≈ 160 µM) | 12.5 (≈ 39.9 µM) | 12.5 (≈ 39.9 µM) | 50 (≈ 160 µM) | 50 (≈ 160 µM) | 100 (≈ 319 µM) | Cc1cccc2c1oc(=O)c1cc3c(nc12)-c1ccccc1CC3 | 15 | 15 | 14 | 11 | 20 | 25 |  |  |  |

| Structure (SMILES) | MIC [2] [µg/mL] | MIC [6] [µg/mL] | MIC [8] [µg/mL] | MIC [9] [µg/mL] | MIC [10] [µg/mL] | MIC [12] [µg/mL] | zone of inhibition at 100 µg/mL [1] [mm] | zone of inhibition at 100 µg/mL [3] [mm] | zone of inhibition at 100 µg/mL [4] [mm] | zone of inhibition at 100 µg/mL [5] [mm] | zone of inhibition at 100 µg/mL [7] [mm] | zone of inhibition at 100 µg/mL [11] [mm] | diameter of the inhibition zone (DIZ) [3] | diameter of the inhibition zone (DIZ) [1] | diameter of the inhibition zone (DIZ) [5] |
| --- | --- | --- | --- | --- | --- | --- | --- | --- | --- | --- | --- | --- | --- | --- | --- |
| O=C(N[C@H](CO)[C@H](O)c1ccc([N+](=O)[O-])cc1)C(Cl)Cl [CHLORAMPHENICOL] | 6.25 (≈ 19.3 µM) | 3.12 (≈ 9.67 µM) | 3.12 (≈ 9.67 µM) | 6.25 (≈ 19.3 µM) |  |  | 38 |  | 37 |  | 44 | 42 |  |  |  |
| C[C@@H]1C[C@@H]([C@H](O)CC2CC(=O)NC(=O)C2)C(=O)[C@@H](C)C1 [CYCLOHEXIMIDE] |  |  |  |  | 6.25 (≈ 22.2 µM) | 3.12 (≈ 11.1 µM) |  | 42 |  | 43 |  |  |  |  |  |
